# Measurements: ChEMBL document CHEMBL1221224, “Inhibition of Wnt signaling by Dishevelled PDZ peptides” (Nat Chem Biol, 2009)
# Activity calls are given as the source filed them. The calls are words filed in the database; no cut-off is given here. Where a SMILES comes first, the peptide text is derived from it.
# What was measured:
# [1] = biological target: T1, Segment polarity protein dishevelled homolog DVL-2 (Homo sapiens, UniProt O14641); experiment: (§1) Binding affinity at Dvl2 PDZ domain after 15 mins by fluorescence polarization assay
# T1 sequence (O14641 whole entry): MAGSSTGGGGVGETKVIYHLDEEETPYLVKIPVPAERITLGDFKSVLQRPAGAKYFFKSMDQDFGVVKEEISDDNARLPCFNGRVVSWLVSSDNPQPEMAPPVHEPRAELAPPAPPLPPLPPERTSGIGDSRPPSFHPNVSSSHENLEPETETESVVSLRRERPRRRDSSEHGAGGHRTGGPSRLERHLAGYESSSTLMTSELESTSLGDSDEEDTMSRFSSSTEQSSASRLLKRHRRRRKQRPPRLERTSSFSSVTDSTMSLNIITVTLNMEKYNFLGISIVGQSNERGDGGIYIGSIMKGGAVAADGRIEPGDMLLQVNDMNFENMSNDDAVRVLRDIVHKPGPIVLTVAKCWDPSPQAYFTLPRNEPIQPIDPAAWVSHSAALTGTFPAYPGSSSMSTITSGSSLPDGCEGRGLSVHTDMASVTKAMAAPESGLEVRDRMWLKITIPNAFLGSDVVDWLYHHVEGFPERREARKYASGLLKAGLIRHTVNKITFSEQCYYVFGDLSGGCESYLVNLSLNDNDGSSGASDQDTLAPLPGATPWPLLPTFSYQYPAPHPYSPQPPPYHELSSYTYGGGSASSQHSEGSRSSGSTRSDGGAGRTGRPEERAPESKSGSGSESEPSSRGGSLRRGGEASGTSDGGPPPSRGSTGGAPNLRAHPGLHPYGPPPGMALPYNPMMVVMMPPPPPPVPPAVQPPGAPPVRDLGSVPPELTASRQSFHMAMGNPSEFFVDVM
# [2] = Drug uptake in human HEK293S cells after 1 hr by time-lapse microscopy; assay type: ADME, cell-based
# [3] = Inhibition of Dvl mediated Wnt3a/TCF signaling in human HEK293S cells after 18 hrs by TOPglow reporter assay
# HEK293 = experiment: Inhibition of Dvl mediated Wnt3a signaling in human HEK293 cells assessed as […] accumulation at 10 uM after 18 hrs by Western blot method; assay type: cell-based
# [4] = Cytotoxicity in human HEK293S cells assessed as cell viability at 33 uM after 18 hrs by differential interference contrast microscopy; assay type: cell-based
# HCT-15 = experiment: Inhibition of Dvl mediated Wnt/TCF signaling in human HCT15 after 18 hrs by TOPglow reporter assay; assay type: cell-based
# [5] = biological target: T2, Segment polarity protein dishevelled homolog DVL-1 (Homo sapiens) (UniProt O14640); experiment: Inhibition of Dvl1 overexpressed in human HEK293S assessed as inhibition of […]/TCF reporter signaling at 20 uM after 18 hrs by TOPglow reporter assay
# T2 sequence (whole entry): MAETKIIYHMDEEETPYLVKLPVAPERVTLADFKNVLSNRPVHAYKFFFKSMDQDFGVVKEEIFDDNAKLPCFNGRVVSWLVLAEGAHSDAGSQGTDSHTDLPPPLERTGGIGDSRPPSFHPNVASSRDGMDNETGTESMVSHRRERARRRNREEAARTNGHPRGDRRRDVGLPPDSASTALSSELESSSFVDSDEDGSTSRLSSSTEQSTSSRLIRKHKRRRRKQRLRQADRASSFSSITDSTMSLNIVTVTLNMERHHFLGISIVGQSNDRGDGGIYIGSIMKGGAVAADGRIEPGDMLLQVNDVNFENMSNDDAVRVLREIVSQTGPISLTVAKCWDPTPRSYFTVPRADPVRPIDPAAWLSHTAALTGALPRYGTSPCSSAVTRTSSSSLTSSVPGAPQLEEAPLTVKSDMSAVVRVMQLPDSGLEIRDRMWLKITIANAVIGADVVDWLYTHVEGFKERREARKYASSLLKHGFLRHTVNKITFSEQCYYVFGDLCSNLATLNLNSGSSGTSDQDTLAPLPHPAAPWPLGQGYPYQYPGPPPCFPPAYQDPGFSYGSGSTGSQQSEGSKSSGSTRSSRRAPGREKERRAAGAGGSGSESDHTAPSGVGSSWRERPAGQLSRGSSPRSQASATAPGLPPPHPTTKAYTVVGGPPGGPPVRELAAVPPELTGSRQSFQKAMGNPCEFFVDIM
# [6] = biological target: T3, Segment polarity protein dishevelled homolog DVL-2 (Homo sapiens) (UniProt O14641); experiment: Inhibition of Dvl2 overexpressed in human HEK293S assessed as inhibition of […]/TCF reporter signaling at 20 uM after 18 hrs by TOPglow reporter assay
# T3 sequence (whole entry): T1 sequence (O14641 whole entry)
# [7] = biological target: T4, Segment polarity protein dishevelled homolog DVL-3 (Homo sapiens) (UniProt Q92997); experiment: Inhibition of Dvl3 overexpressed in human HEK293S assessed as inhibition of […]/TCF reporter signaling at 20 uM after 18 hrs by TOPglow reporter assay
# T4 sequence (whole entry): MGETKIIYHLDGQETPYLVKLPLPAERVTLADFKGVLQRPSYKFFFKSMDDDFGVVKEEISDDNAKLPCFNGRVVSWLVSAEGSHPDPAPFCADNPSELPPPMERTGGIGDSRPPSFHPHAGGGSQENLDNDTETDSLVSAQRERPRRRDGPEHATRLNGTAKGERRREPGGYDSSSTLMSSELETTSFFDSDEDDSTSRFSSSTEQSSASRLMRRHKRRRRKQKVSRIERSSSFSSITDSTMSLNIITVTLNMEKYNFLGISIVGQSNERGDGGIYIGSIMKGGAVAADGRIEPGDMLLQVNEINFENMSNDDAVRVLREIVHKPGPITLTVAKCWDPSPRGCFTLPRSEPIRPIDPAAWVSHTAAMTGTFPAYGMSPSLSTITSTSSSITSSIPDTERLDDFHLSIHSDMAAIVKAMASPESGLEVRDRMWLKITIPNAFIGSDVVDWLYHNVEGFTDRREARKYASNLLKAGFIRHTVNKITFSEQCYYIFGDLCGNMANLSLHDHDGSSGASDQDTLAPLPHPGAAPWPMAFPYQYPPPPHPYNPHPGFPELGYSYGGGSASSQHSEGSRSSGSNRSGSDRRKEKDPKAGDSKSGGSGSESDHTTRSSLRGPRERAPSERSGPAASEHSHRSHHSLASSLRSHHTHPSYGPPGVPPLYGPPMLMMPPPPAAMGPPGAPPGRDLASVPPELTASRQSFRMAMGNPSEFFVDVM
# [8] = biological target: T5, Catenin beta-1 (Homo sapiens) (UniProt P35222); experiment: Inhibition of […] mediated […]/TCF reporter signaling in human HEK293S at 20 uM after 18 hrs by TOPglow reporter assay; assay type: functional
# T5 sequence (whole entry): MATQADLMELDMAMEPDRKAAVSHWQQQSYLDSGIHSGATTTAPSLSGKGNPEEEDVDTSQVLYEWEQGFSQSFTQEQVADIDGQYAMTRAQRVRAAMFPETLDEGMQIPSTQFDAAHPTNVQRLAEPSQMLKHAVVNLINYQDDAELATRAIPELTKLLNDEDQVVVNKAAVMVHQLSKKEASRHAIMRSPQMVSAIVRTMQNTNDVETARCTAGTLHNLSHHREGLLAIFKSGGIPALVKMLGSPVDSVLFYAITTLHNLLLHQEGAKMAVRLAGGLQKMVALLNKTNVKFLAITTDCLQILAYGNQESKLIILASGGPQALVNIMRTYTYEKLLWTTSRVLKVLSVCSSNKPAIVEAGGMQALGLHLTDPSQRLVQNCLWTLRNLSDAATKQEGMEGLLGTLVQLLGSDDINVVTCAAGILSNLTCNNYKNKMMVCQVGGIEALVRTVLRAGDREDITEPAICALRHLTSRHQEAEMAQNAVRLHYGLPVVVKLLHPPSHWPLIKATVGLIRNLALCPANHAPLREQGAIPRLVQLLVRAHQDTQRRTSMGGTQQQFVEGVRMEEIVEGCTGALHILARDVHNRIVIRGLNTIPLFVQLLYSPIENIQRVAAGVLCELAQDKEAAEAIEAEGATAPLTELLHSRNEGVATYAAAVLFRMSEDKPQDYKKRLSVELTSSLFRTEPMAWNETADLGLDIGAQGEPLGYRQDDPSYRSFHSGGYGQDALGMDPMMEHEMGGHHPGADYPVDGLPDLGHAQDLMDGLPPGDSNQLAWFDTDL
# [9] = biological target: T4, Segment polarity protein dishevelled homolog DVL-3 (Homo sapiens); experiment: Binding affinity at Dvl3 in human HEK293S lysate after 15 mins by pulldown and Western blot assays
# [10] = Cytotoxicity in human HEK293S cells assessed as cell viability at 100 uM after 18 hrs by differential interference contrast microscopy; assay type: cell-based
# [11] = Cytotoxicity in human HEK293S cells assessed as cell viability at 300 uM after 18 hrs by differential interference contrast microscopy; assay type: cell-based
# [12] = biological target: T3, Segment polarity protein dishevelled homolog DVL-2 (Homo sapiens); experiment: as §1
smiles,measurement,setting,value
NCCCC[C@H](NC(=O)[C@@H](N)Cc1c[nH]c2ccccc12)C(=O)N[C@@H](Cc1c[nH]c2ccccc12)C(=O)N[C@@H](Cc1ccc(O)cc1)C(=O)NCC(=O)N[C@@H](Cc1c[nH]c2ccccc12)C(=O)N[C@@H](Cc1ccccc1)C(=O)O (H-WKWYGWF-OH),Ki,[1],0.7 µM
CC[C@H](C)[C@H](NC(=O)[C@H](CCCCN)NC(=O)[C@@H](NC(=O)[C@H](CCC(N)=O)NC(=O)[C@H](CCCNC(=N)N)NC(C)=O)[C@@H](C)CC)C(=O)N[C@@H](Cc1c[nH]c2ccccc12)C(=O)N[C@@H](Cc1ccccc1)C(=O)N[C@@H](CCC(N)=O)C(=O)N[C@@H](CC(N)=O)C(=O)N[C@@H](CCCNC(=N)N)C(=O)N[C@@H](CCCNC(=N)N)C(=O)N[C@@H](CCSC)C(=O)N[C@@H](CCCCN)C(=O)N[C@@H](Cc1c[nH]c2ccccc12)C(=O)N[C@@H](CCCCN)C(=O)N[C@@H](CCCCN)C(=O)NCC(=O)NCC(=O)NCC(=O)N[C@@H](CCC(=O)O)C(=O)N[C@H](C(=O)N[C@H](C(=O)N[C@@H](CC(C)C)C(=O)N[C@@H](Cc1c[nH]c2ccccc12)C(=O)N[C@@H](CO)C(=O)N[C@@H](CC(=O)O)C(=O)N[C@H](C(=O)N1CCC[C@H]1C(N)=O)[C@@H](C)CC)C(C)C)[C@@H](C)CC,Drug uptake,[2],Active
same,IC50,[3],11 µM
same,inhibition,HEK293,Active
same,Activity,[4],Non-toxic
same,inhibition,HCT-15,inactive
same,inhibition,[5],Active
same,inhibition,[6],Active
same,inhibition,[7],Active
same,inhibition,[8],inactive
same,Activity,[9],Active
CCCCC(O)c1[nH]c2cc(C)c(C(=O)O)cc2c1CCc1ccccc1 (configuration not stated),IC50,[3],> 100 µM
same,Activity,[10],Toxic
same,Activity,[11],Toxic
CC[C@H](C)[C@H](NC(=O)[C@H](Cc1c[nH]c2ccccc12)NC(=O)[C@@H](NC(=O)[C@H](CCC(=O)O)NC(=O)[C@H](CC(N)=O)NC(=O)CNC(=O)[C@@H](N)CO)C(C)C)C(=O)N[C@@H](CC(=O)O)C(=O)NCC(=O)N1CCC[C@H]1C(=O)O (H-SGNEVWIDGP-OH),Activity,[12],Active
CC[C@H](C)[C@H](NC(=O)[C@H](CC(=O)O)NC(=O)[C@H](CO)NC(=O)[C@H](Cc1c[nH]c2ccccc12)NC(=O)[C@H](CC(C)C)NC(=O)[C@@H](NC(=O)[C@@H](NC(=O)[C@H](CCC(=O)O)NC(=O)CN)[C@@H](C)CC)C(C)C)C(=O)O (H-GEIVLWSDI-OH),Ki,[1],4.6 µM
CC[C@H](C)[C@H](NC(=O)[C@H](Cc1c[nH]c2ccccc12)NC(=O)CNC(=O)[C@H](Cc1ccc(O)cc1)NC(=O)[C@H](CC(=O)O)NC(=O)[C@H](CCCCN)NC(=O)[C@@H](N)Cc1c[nH]c2ccccc12)C(=O)N[C@@H](CC(=O)O)C(=O)O (H-WKDYGWID-OH),Ki,[1],1.2 µM
